Experimental data as given in ChEMBL document CHEMBL3885881, “DrugMatrix”.

Species: Rattus norvegicus
Assay: DrugMatrix - Regimen: Daily Repeat
Assay type: toxicity, organism-based, Sprague-Dawley
Design: regimen Daily Repeat, gender Male, age 6-8 weeks
Settings: in vivo, po, route oral GAVAGE, vehicle 100 % WATER; for ABSOLUTE BASOPHIL / ABSOLUTE EOSINOPHIL / ABSOLUTE LYMPHOCYTE / ABSOLUTE MONOCYTE / ABSOLUTE SEGMENTED NEUTROPHIL / BASOPHIL / EOSINOPHIL / ERYTHROCYTE COUNT / HEMATOCRIT / HEMOGLOBIN / LEUKOCYTE COUNT / LYMPHOCYTE / MEAN CORPUSCULAR HEMOGLOBIN / MEAN CORPUSCULAR HEMOGLOBIN CONCENTRATION / MEAN CORPUSCULAR VOLUME / MONOCYTE / NEUTROPHIL / NUCLEATED RED BLOOD CELLS / PLATELET COUNT: tissue Blood; for ALANINE AMINOTRANSFERASE / ALBUMIN / ALKALINE PHOSPHATASE / ASPARTATE AMINOTRANSFERASE / BLOOD UREA NITROGEN / CARBON DIOXIDE / CHLORIDE / CHOLESTEROL / CREATINE PHOSPHOKINASE / CREATININE / GLUCOSE / LACTATE DEHYDROGENASE / LIPASE / PHOSPHORUS / POTASSIUM / SODIUM / TOTAL BILIRUBIN / TOTAL PROTEIN / URIC ACID: tissue Plasma
[1] = 0 mg/kg, 72 h, dose level Control, time 3 day
[2] = 0 mg/kg, 120 h, dose level Control, time 5 day
[3] = 2 mg/kg, 72 h, dose level Low, time 3 day

What does the source list for C[C@]12C=CC(=O)C=C1CC[C@@H]1[C@@H]2[C@@H](O)C[C@@]2(C)[C@H]1CC[C@]2(O)C(=O)CO [PREDNISOLONE]?
ABSOLUTE BASOPHIL [1]: 0 CELLS/uL; ABSOLUTE EOSINOPHIL [1]: 24 CELLS/uL; ABSOLUTE LYMPHOCYTE [1]: 13105 CELLS/uL; ABSOLUTE MONOCYTE [1]: 76 CELLS/uL; ABSOLUTE SEGMENTED NEUTROPHIL [1]: 2145 CELLS/uL; BASOPHIL [1]: 0%; EOSINOPHIL [1]: 0.17%; ERYTHROCYTE COUNT [1]: 5.81 x10E6/uL; HEMATOCRIT [1]: 35.6%; HEMOGLOBIN [1]: 13.72 G/DL; LEUKOCYTE COUNT [1]: 15.35 x10E3/uL; LYMPHOCYTE [1]: 85.5%; MEAN CORPUSCULAR HEMOGLOBIN [1]: 23.62 pg; MEAN CORPUSCULAR HEMOGLOBIN CONCENTRATION [1]: 38.55 G/DL; MEAN CORPUSCULAR VOLUME [1]: 61.23 fL; MONOCYTE [1]: 0.5%; NEUTROPHIL [1]: 13.83%; NUCLEATED RED BLOOD CELLS [1]: 0 /100WBC; PLATELET COUNT [1]: 1189.83 x10E3/uL; ALANINE AMINOTRANSFERASE [1]: 48.67 u/L; ALBUMIN [1]: 4.27 G/DL; ALKALINE PHOSPHATASE [1]: 335 u/L; ASPARTATE AMINOTRANSFERASE [1]: 86.5 u/L; BLOOD UREA NITROGEN [1]: 14.33 mg/dL; CARBON DIOXIDE [1]: 29.17 mmol/L; CHLORIDE [1]: 99.83 MEQ/L; CHOLESTEROL [1]: 71.83 mg/dL; CREATINE PHOSPHOKINASE [1]: 506.83 u/L; CREATININE [1]: 0.18 mg/dL; GLUCOSE [1]: 162.17 mg/dL; LACTATE DEHYDROGENASE [1]: 264.5 u/L; LIPASE [1]: 9.67 u/L; PHOSPHORUS [1]: 11.92 mg/dL; POTASSIUM [1]: 6.55 MEQ/L; SODIUM [1]: 141.53 MEQ/L; TOTAL BILIRUBIN [1]: 0.18 mg/dL; TOTAL PROTEIN [1]: 5.87 G/DL; URIC ACID [1]: 1.67 mg/dL; ABSOLUTE BASOPHIL [2]: 0 CELLS/uL; ABSOLUTE EOSINOPHIL [2]: 25.33 CELLS/uL; ABSOLUTE LYMPHOCYTE [2]: 15680 CELLS/uL; ABSOLUTE MONOCYTE [2]: 92.33 CELLS/uL; ABSOLUTE SEGMENTED NEUTROPHIL [2]: 2102.33 CELLS/uL; BASOPHIL [2]: 0%; EOSINOPHIL [2]: 0.17%; ERYTHROCYTE COUNT [2]: 6 x10E6/uL; HEMATOCRIT [2]: 35.55%; HEMOGLOBIN [2]: 14.12 G/DL; LEUKOCYTE COUNT [2]: 17.9 x10E3/uL; LYMPHOCYTE [2]: 87.33%; MEAN CORPUSCULAR HEMOGLOBIN [2]: 23.65 pg; MEAN CORPUSCULAR HEMOGLOBIN CONCENTRATION [2]: 39.77 G/DL; MEAN CORPUSCULAR VOLUME [2]: 59.52 fL; MONOCYTE [2]: 0.5%; NEUTROPHIL [2]: 12%; NUCLEATED RED BLOOD CELLS [2]: 0.17 /100WBC; PLATELET COUNT [2]: 1325.67 x10E3/uL; ALANINE AMINOTRANSFERASE [2]: 56.17 u/L; ALBUMIN [2]: 4.23 G/DL; ALKALINE PHOSPHATASE [2]: 371.5 u/L; ASPARTATE AMINOTRANSFERASE [2]: 91 u/L; BLOOD UREA NITROGEN [2]: 15.33 mg/dL; CARBON DIOXIDE [2]: 27.67 mmol/L; CHLORIDE [2]: 99.5 MEQ/L; CHOLESTEROL [2]: 66.5 mg/dL; CREATINE PHOSPHOKINASE [2]: 518.5 u/L; CREATININE [2]: 0.18 mg/dL; GLUCOSE [2]: 143.33 mg/dL; LACTATE DEHYDROGENASE [2]: 238.83 u/L; LIPASE [2]: 9.33 u/L; PHOSPHORUS [2]: 10.68 mg/dL; POTASSIUM [2]: 6.5 MEQ/L; SODIUM [2]: 141.88 MEQ/L; TOTAL BILIRUBIN [2]: 0.18 mg/dL; TOTAL PROTEIN [2]: 6 G/DL; URIC ACID [2]: 1.63 mg/dL; ABSOLUTE BASOPHIL [3]: 0 CELLS/uL; ABSOLUTE EOSINOPHIL [3]: 0 CELLS/uL; ABSOLUTE LYMPHOCYTE [3]: 13282 CELLS/uL; ABSOLUTE MONOCYTE [3]: 183.67 CELLS/uL; ABSOLUTE SEGMENTED NEUTROPHIL [3]: 1434.33 CELLS/uL; BASOPHIL [3]: 0%; EOSINOPHIL [3]: 0%; ERYTHROCYTE COUNT [3]: 5.89 x10E6/uL; HEMATOCRIT [3]: 36.9%; HEMOGLOBIN [3]: 14.23 G/DL; LEUKOCYTE COUNT [3]: 14.9 x10E3/uL; LYMPHOCYTE [3]: 88.67%; MEAN CORPUSCULAR HEMOGLOBIN [3]: 24.17 pg; MEAN CORPUSCULAR HEMOGLOBIN CONCENTRATION [3]: 38.57 G/DL; MEAN CORPUSCULAR VOLUME [3]: 62.63 fL; MONOCYTE [3]: 1%; NEUTROPHIL [3]: 10.33%; NUCLEATED RED BLOOD CELLS [3]: 0 /100WBC; PLATELET COUNT [3]: 1283.33 x10E3/uL; ALANINE AMINOTRANSFERASE [3]: 48.33 u/L; ALBUMIN [3]: 4.37 G/DL; ALKALINE PHOSPHATASE [3]: 335.33 u/L; ASPARTATE AMINOTRANSFERASE [3]: 82.67 u/L; BLOOD UREA NITROGEN [3]: 15.67 mg/dL; CARBON DIOXIDE [3]: 25.33 mmol/L; CHLORIDE [3]: 101.33 MEQ/L; CHOLESTEROL [3]: 64.67 mg/dL; CREATINE PHOSPHOKINASE [3]: 495.33 u/L; CREATININE [3]: 0.15 mg/dL; GLUCOSE [3]: 167.67 mg/dL; LACTATE DEHYDROGENASE [3]: 139 u/L; LIPASE [3]: 9.67 u/L; PHOSPHORUS [3]: 12.63 mg/dL; POTASSIUM [3]: 5.96 MEQ/L; SODIUM [3]: 144.8 MEQ/L; TOTAL BILIRUBIN [3]: 0.17 mg/dL; TOTAL PROTEIN [3]: 6.1 G/DL; URIC ACID [3]: 1.97 mg/dL
